Assay results published in publication PMC2868945 (Bioorganic & medicinal chemistry, 2010).
Values joined by “and” are separate entries in the source; they are usually repeats but may differ in a detail not shown here. Identical values can stand only once. “Also recorded” adds a separate entry of the source.

What was measured:
[1] = biological target: recombinant lumazine synthase of M. tuberculosis (Mycobacterium tuberculosis, UniProt P9WHE9); assay: Kinetic assay of lumazine synthase inhibitors; type: biochemical; conditions: for inhibitory activity against lumazine synthase (in words): M. tuberculosis LS; for Kcat (rate constant for ES ⇌ E + P) / Mechanism / Kis (inhibitor dissociation constant for ES + I ⇌ ESI): LS; for Kcat (rate constant for ES ⇌ E + P): fit parameter of the inhibitor's data set; for Mechanism: most likely inhibition model (DynaFit); for Kis (inhibitor dissociation constant for ES + I ⇌ ESI): pH 7.0, 27 °C, pyrimidinedione substrate varied
Chain of recombinant lumazine synthase of M. tuberculosis (P9WHE9 whole entry): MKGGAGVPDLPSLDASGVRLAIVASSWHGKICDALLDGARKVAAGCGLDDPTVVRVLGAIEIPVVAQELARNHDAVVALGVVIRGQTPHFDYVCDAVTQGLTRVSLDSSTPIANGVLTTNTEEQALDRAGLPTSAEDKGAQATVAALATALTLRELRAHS

[2] = biological target: recombinant riboflavin synthase of M. tuberculosis (Mycobacterium tuberculosis, UniProt P9WK35); assay: Kinetic assay of riboflavin synthase inhibitors; type: biochemical; conditions: for inhibitory activity against riboflavin synthase (in words): M. tuberculosis RS; for Kis (inhibitor dissociation constant for ES + I ⇌ ESI): pH 7.0, 27 °C; for Mechanism: most likely inhibition model (DynaFit)
Chain of recombinant riboflavin synthase of M. tuberculosis (P9WK35 whole entry): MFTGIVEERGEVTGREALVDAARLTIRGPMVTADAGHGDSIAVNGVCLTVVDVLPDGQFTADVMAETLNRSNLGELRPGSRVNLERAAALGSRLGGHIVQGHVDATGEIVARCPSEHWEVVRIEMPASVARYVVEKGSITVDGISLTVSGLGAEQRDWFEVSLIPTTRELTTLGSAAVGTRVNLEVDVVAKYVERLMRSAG

[3] = biological target: T1, M. tuberculosis lumazine synthase (Mycobacterium tuberculosis, UniProt P9WHE9); conditions: cited from earlier work
T1 sequence (P9WHE9 whole entry): as the sequence (P9WHE9 whole entry) above

[4] = biological target: T1, M. tuberculosis lumazine synthase; assay: biochemical; type: binding; conditions: for binding enthalpy ΔH: 100 mM potassium phosphate buffer, pH 7.0, 30 °C, apparent; for entropy ΔS of binding: calculated from ΔG = ΔH − TΔS
[5] = biological target: icosahedral lumazine synthase from Bacillus anthracis (Bacillus anthracis, UniProt Q81MB5); type: binding
Chain of icosahedral lumazine synthase from Bacillus anthracis (Q81MB5 whole entry, looked up): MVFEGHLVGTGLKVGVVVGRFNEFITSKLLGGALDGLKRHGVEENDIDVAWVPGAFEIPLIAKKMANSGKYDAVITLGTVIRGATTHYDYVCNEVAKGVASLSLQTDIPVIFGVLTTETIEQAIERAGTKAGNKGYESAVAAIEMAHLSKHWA

[6] = biological target: pentameric lumazine synthase from Schizosaccharomyces pombe (Schizosaccharomyces pombe, UniProt Q9UUB1); type: binding; conditions: same experimental limits as for the M. tuberculosis enzyme
Chain of pentameric lumazine synthase from Schizosaccharomyces pombe (Q9UUB1 whole entry): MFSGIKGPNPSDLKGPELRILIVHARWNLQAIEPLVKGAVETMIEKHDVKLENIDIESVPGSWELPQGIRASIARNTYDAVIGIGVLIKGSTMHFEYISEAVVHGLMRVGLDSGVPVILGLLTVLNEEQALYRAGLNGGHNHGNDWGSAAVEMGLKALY

[7] = RS, fit parameter of the inhibitor's data set

Row | Compound | inhibitory activity against lumazine synthase (in words) [1] | inhibitory activity against riboflavin synthase (in words) [2] | Kcat (rate constant for ES ⇌ E + P) [1] [m^−1] | Mechanism [1] | Kis (inhibitor dissociation constant for ES + I ⇌ ESI) [1] | Ks (substrate dissociation constant for E + S ⇌ ES) [2, 7] [µM] | Kis (inhibitor dissociation constant for ES + I ⇌ ESI) ([2]; RS) [µM] | also measured
1 | 1,1-Difluoro-4-(2-oxo-1,2-dihydrobenzo[cd]indole-6-sulfonamido)butylphosphonic Acid [Compound 71] | inactive | inactive | – | – | – | – | – | –
2 | 1,1-Difluoro-4-(2-oxo-1,2-dihydrobenzo[cd]indole-6-sulfonamido)hexylphosphonic Acid [Compound 73] | inactive | inactive | – | – | – | – | – | –
3 | 1,1-Difluoro-4-(2-oxo-1,2-dihydrobenzo[cd]indole-6-sulfonamido)pentylphosphonic Acid [Compound 72] | poor inhibitory activity | inactive | 0.57 ± 0.01 | Mixed | 518 µM and 518 ± 94 µM | 4.1 ± 0.3 | > 1000 | –
4 | 4-(2-Oxo-1,2-dihydrobenzo[cd]indole-6-sulfonamido)pentylphosphonic Acid [Compound 55] | absolutely no inhibitory activity | – | – | – | – | – | – | –
5 | 5-(2-Oxo-1,2-dihydrobenzo[cd]indole-6-sulfonamido)hexyl Dihydrogen Phosphate [Compound 40] | – | weak, uncompetitive inhibitors | 0.45 ± 0.01 | Uncompetitive | 723 ± 91 µM | 9.8 ± 0.6 | 898 ± 187 | Kcat (rate constant for ES ⇌ E + P) [2, 7]: 0.56 ± 0.01 m^−1; Mechanism ([2]; RS): Uncompetitive
6 | O=C(O)CNS(=O)(=O)c1ccc2c3c(cccc13)C(=O)N2 [Compound 9, 2-(2-oxo-1,2-dihydrobenzo[cd]indole-6-sulfonamido)acetic acid] | demonstrated inhibition | – | – | – | 58 µM | – | – | –
7 | O=c1[nH]c(Cl)c(CCCCOP(=O)(O)O)c(=O)[nH]1 [Compound 11, 4-(6-chloro-2,4-dioxo-1,2,3,4-tetrahydropyrimidin-5-yl)butyl dihydrogen phosphate] | – | – | – | – | – | – | – | Ki ([3]; M. tuberculosis lumazine synthase): 0.88 µM; inhibition constant (in words) ([3]; lumazine synthase): nanomolar range
8 | O=C1Nc2ccc(S(=O)(=O)NCCOP(=O)(O)O)c3cccc1c23 [Compound 26, 2-(2-Oxo-1,2-dihydrobenzo[cd]indole-6-sulfonamido)ethyl Dihydrogen Phosphate] | – | – | 0.41 ± 0.01 | Partial | 125 ± 57 µM | 5.7 ± 0.04 | > 1000 | –
9 | O=C1Nc2ccc(S(=O)(=O)NCCCOP(=O)(O)O)c3cccc1c23 [Compound 27, 3-(2-Oxo-1,2-dihydrobenzo[cd]indole-6-sulfonamido)propyl Dihydrogen Phosphate] | – | – | 0.45 ± 0.01 | Mixed | 434 ± 115 µM | 5.6 ± 0.04 | > 1000 | Kd [4]: 112 µM; binding enthalpy ΔH ([4]; ITC): -5.2 ± 0.7 kcal/mol; entropy ΔS of binding ([4]; ITC, 30 °C): 0.98 cal·mol^−1·deg^−1
10 | O=C1Nc2ccc(S(=O)(=O)NCCO)c3cccc1c23 [Compound 31, N-(2-Hydroxyethyl)-2-oxo-1,2-dihydrobenzo[cd]indole-6-sulfonamide] | totally inactive | – | – | – | – | – | – | –
11 | CCC(O)CNS(=O)(=O)c1ccc2c3c(cccc13)C(=O)N2 (stereo not drawn) [Compound 32, N-(2-Hydroxybutyl)-2-oxo-1,2-dihydrobenzo[cd]indole-6-sulfonamide] | totally inactive | – | – | – | – | – | – | –
12 | O=C1Nc2ccc(S(=O)(=O)NCCCCCO)c3cccc1c23 [Compound 33, N-(5-Hydroxypentyl)-2-oxo-1,2-dihydrobenzo[cd]indole-6-sulfonamide] | totally inactive | – | – | – | – | – | – | –
13 | O=C1Nc2ccc(S(=O)(=O)NCCCCOP(=O)(O)O)c3cccc1c23 [Compound 38, 4-(2-Oxo-1,2-dihydrobenzo[cd]indole-6-sulfonamido)butyl Dihydrogen Phosphate] | – | – | 0.44 ± 0.01 | Mixed | 572 ± 210 µM | 6.5 ± 0.3 | > 1000 | binding detected by titration calorimetry (in words) [5]: do not indicate a binding reaction; also recorded: did not detect binding; binding detected by titration calorimetry (in words) [6]: do not indicate a binding reaction; also recorded: did not detect binding; Kd [4]: 130 µM; binding enthalpy ΔH ([4]; ITC): -7.6 ± 1.3 kcal/mol; entropy ΔS of binding ([4]; ITC, 30 °C): −7.2 cal·mol^−1·deg^−1; stoichiometry (n) of the binding reaction ([4]; ITC, 30 °C, inhibitor molecules per active site): 1
14 | O=C1Nc2ccc(S(=O)(=O)NCCCCCOP(=O)(O)O)c3cccc1c23 [Compound 39, 5-(2-oxo-1,2-dihydrobenzo[cd]indole-6-sulfonamido)pentyl Dihydrogen Phosphate] | – | weak, uncompetitive inhibitors | 0.45 ± 0.01 | Uncompetitive | 563 ± 56 µM | 9.8 ± 0.6 | 971 ± 179 | Mechanism ([2]; RS): Uncompetitive
15 | O=C1Nc2ccc(S(=O)(=O)NCCCCP(=O)(O)O)c3cccc1c23 [Compound 54, 4-(2-Oxo-1,2-dihydrobenzo[cd]indole-6-sulfonamido)butylphosphonic Acid] | absolutely no inhibitory activity | – | – | – | – | – | – | –
16 | CCOC(=O)C(=O)Nc1c(Cl)[nH]c(=O)[nH]c1=O [Compound 77, Ethyl 2-(6-Chloro-2,4,dioxo-1,2,3,4-tetrahydropyrimidin-5-ylamino)-2-oxoethanoate] | – | weak, uncompetitive inhibitors | 0.61 ± 0.02 | Mixed | > 1000 µM | 7.8 ± 0.3 | 897 ± 104 | Mechanism ([2]; RS): Uncompetitive
